According to patent US20250017914A1, “6-AZA-QUINOLINE DERIVATIVES AND RELATED USES” (Black Diamond Therapeutics, Inc., priority 2021, published 2025):

target: T1, BaF3 BRAF-KIAA1549 fusion cells (Homo sapiens, UniProt P15056); experiment: BaF3 BRAF-KIAA1549 fusion cell proliferation assay (CellTiterGlo, 96 hours); type: cell-based; details: Table A1
T1 construct: The BRAF-KIAA1549 fusion mutant was subcloned into pMXs-IRES-Blasticidin (RTV-016, Cell Biolabs, San Diego, CA); No tag given; Q9HCM3 (UPF0606 protein KIAA1549)
T1 sequence (P15056 whole entry, change not shown, the tested form may be a part): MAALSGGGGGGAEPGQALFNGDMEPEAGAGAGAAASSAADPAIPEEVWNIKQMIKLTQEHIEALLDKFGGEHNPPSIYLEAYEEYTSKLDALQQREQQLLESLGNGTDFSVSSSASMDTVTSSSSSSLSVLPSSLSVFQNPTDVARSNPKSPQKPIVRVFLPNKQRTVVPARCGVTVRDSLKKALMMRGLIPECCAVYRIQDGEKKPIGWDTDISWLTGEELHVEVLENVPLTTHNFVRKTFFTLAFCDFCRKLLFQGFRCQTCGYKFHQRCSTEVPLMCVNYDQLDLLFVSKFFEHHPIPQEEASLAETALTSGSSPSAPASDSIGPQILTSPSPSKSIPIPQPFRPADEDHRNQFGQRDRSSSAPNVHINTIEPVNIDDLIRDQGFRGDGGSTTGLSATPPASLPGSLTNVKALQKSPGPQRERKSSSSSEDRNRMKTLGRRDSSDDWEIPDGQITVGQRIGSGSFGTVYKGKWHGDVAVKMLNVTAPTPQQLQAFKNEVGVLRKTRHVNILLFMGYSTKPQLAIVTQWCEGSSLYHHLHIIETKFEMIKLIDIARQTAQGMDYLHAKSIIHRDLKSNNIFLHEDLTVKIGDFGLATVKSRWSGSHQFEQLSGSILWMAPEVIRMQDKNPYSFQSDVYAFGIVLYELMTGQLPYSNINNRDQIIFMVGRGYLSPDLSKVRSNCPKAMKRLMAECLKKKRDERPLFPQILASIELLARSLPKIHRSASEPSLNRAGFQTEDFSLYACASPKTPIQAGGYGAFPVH
Description: Retroviral Production: The BRAF-KIAA1549 fusion mutant was subcloned into pMXs-IRES-Blasticidin (RTV-016, Cell Biolabs, San Diego, CA). Retrovirus was produced by transfection of HEK 293T cells with the retroviral BRAF mutant expression vector pMXs-IRES-Blasticidin (RTV-016, Cell Biolabs), pCMV-Gag-Pol vector and pCMV-VSV-G-Envelope vector. Briefly, HEK 293T cells were plated in Poly-D-lysine coated 6-well plate (2.5×10^5 cells per well) and incubated overnight. The next day, retroviral plasmids (1 μg of BRAF-KIAA fusion mutant, 0.32 μg of pCMV-Gag-Pol and 0.165 μg pCMV-VSV-G) were mixed in 300 μL of Optimem (31985, Life Technologies). The mixture was incubated at room temperature for 5 minutes and then added to Optimem containing transfection reagent Lipofectamine (11668, Invitrogen) and incubated for 20 minutes. The mixture was then added dropwise to HEK 293T cells. The next day the medium was replaced with fresh culture medium and retrovirus was harvested at 24 hours.
Generation of BRAF-KIAA1549 fusion stable cell line: BaF3 cells were plated in V-bottom 96 well plate (COSTAR #3894) in 80 μL of RPMI/10% FBS and 0.01 ng/mL mouse IL-3, supplemented with 8 μg/mL polybrene (4×10^4 cells/well). Cells were transduced with 20 μL of BRAF-KIAA1549 fusion viral supernatant by centrifuging for 30 minutes at 1000 rpm. Cells were placed in a 37° C. incubator overnight. Next day 100 μL of RPMI/10% FBS and 0.01 ng/mL mouse IL-3 was added. After 24 hours, 100 μL of cells were transferred to a 24 well plate containing 900 μL of RPM/10% FBS and 15 μg/mL Blasticidin. Contents of the 24 well plate were sampled for cell viability via CellTiterGlo (Promega) over a 2-week period.
Assay for cell proliferation: BaF3 BRAF-KIAA1549 fusion cells were resuspended at 1.5×10^5 c/mL in RPMI containing 10% Heat Inactivated FBS, 1% L-glutamine and dispensed in duplicate (7×10^4 c/well) into 384 well plates. To determine the effect of compound on cell proliferation, BaF3 BRAF-KIAA1549 fusion cells were incubated for 96 hours in the presence of vehicle control (DMSO) or compound at varying concentrations. Inhibition of cell growth was determined by luminescent quantification (Envision by Perkin Elmer) of intracellular ATP content using CellTiterGlo (Promega), according to the protocol provided by the manufacturer. To determine the IC50 values, the vehicle-treated cells were normalized as viable cells and analyzed using the CDD Vault, Collaborative Drug Discovery, Burlingame, CA (the Levenberg-Marquardt algorithm; Levenberg, K., […]; Marquardt, D., 1963).
Tables A1 and A2 assign each compound a code for potency in the BaF3 BRAF-KIAA1549 fusion cell proliferation assay: A, B, C, or D. According to the code, A represents an IC50 value <20 nM; B represents an IC50 value ≥20 nM and <100 nM; C represents an IC50 value ≥100 nM and <500 nM; and D represents an IC50 value ≥500 nM.

Compound	GI50
CNc1cc2ncc(-c3cc(NC(=O)c4cc(C(F)F)ccn4)ccc3C)cc2cn1 [Compound 11, 4-(Difluoromethyl)-N-(4-methyl-3-(7-(methylamino)-1,6-naphthyridin-3-yl)phenyl)picolinamide]	20 to 100 nM
CNc1cc2ncc(-c3cc(NC(=O)c4cc(C(C)(C)C#N)ccn4)c(F)cc3Cl)cc2cn1 [Compound 37, N-(4-Chloro-2-fluoro-5-(7-(methylamino)-1,6-naphthyridin-3-yl)phenyl)-4-(2-cyanopropan-2-yl)picolinamide]	20 to 100 nM
CNc1cc2ncc(-c3cc(NC(=O)c4cc(C(F)(F)F)c(OCCO)cn4)ccc3C)cc2cn1 [Compound 71, 5-(2-hydroxyethoxy)-N-(4-methyl-3-(7-(methylamino)-1,6-naphthyridin-3-yl)phenyl)-4-(trifluoromethyl)picolinamide]	20 to 100 nM
CNc1cc2ncc(-c3cc(NC(=O)c4nccc(C(F)(F)F)c4Cl)ccc3C)cc2cn1 [Compound 6, 3-Chloro-N-(4-methyl-3-(7-(methylamino)-1,6-naphthyridin-3-yl)phenyl)-4-(trifluoromethyl)picolinamide]	< 20 nM

The next lines start with the values.

GI50	Compound
< 20 nM	CNc1cc2ncc(-c3cc(NC(=O)c4ccnc(C5CC(F)(F)C5)c4)ccc3C)cc2cn1 [Compound 17, 2-(3,3-Difluorocyclobutyl)-N-(4-methyl-3-(7-(methylamino)-1,6-naphthyridin-3-yl)phenyl)isonicotinamide]
< 20 nM	CNc1cc2ncc(-c3cc(NC(=O)c4ccnc(C(C)C)c4)cnc3C)cc2cn1 [Compound 57, 2-Isopropyl-N-(6-methyl-5-(7-(methylamino)-1,6-naphthyridin-3-yl)pyridin-3-yl)isonicotinamide]
20 to 100 nM	CNc1cc2ncc(-c3cc(NC(=O)c4ccnc(C(C)(C)C)c4)cnc3C)cc2cn1 [Compound 58, 2-(tert-Butyl)-N-(6-methyl-5-(7-(methylamino)-1,6-naphthyridin-3-yl)pyridin-3-yl)isonicotinamide]
< 20 nM	CNc1cc2ncc(-c3cc(NC(=O)c4ccnc(C(C)(C)F)c4)ccc3C)cc2cn1 [Compound 10, 2-(2-Fluoropropan-2-yl)-N-(4-methyl-3-(7-(methylamino)-1,6-naphthyridin-3-yl)phenyl)isonicotinamide]
< 20 nM	CNc1cc2ncc(-c3cc(NC(=O)c4cc(C(F)(F)F)c(F)cn4)cnc3C)cc2cn1 [Compound 60, 5-Fluoro-N-(6-methyl-5-(7-(methylamino)-1,6-naphthyridin-3-yl)pyridin-3-yl)-4-(trifluoromethyl)picolinamide]
100 to 500 nM	CNc1cc2ncc(-c3cc(NC(=O)c4cc(C(C)(C)F)ccn4)ccc3C)cc2cn1 [Compound 13, 4-(2-Fluoropropan-2-yl)-N-(4-methyl-3-(7-(methylamino)-1,6-naphthyridin-3-yl)phenyl)picolinamide]

same assay, conditions: Table A2

Compound	GI50
CNc1cc2ncc(-c3cc(NC(=O)c4n[nH]c5c4CC(C)CC5)ccc3C)cc2cn1 (stereo not drawn) [Compound 261, 5-methyl-N-(4-methyl-3-(7-(methylamino)-1,6-naphthyridin-3-yl)phenyl)-4,5,6,7-tetrahydro-1H-indazole-3-carboxamide]	< 20 nM
CNc1cc2ncc(-c3cc(NC(=O)c4n[nH]c5c4CCCC5(C)C)ccc3C)cc2cn1 [Compound 262, 7,7-dimethyl-N-(4-methyl-3-(7-(methylamino)-1,6-naphthyridin-3-yl)phenyl)-4,5,6,7-tetrahydro-1H-indazole-3-carboxamide]	20 to 100 nM
CNc1cc2ncc(-c3cc(NC(=O)c4c[nH]c5c4CC(C)CC5)ccc3C)cc2cn1 (stereo not drawn) [Compound 266, 5-methyl-N-(4-methyl-3-(7-(methylamino)-1,6-naphthyridin-3-yl)phenyl)-4,5,6,7-tetrahydro-1H-indole-3-carboxamide]	20 to 100 nM
CNc1cc2ncc(-c3cc(NC(=O)N4CC[C@@H](CC(F)(F)F)C4)ccc3C)cc2cn1 (single isomer, unassigned) [Compound 267]	< 20 nM
Cc1ccc(NC(=O)c2cc(C(C)(C)C#N)ccn2)cc1-c1ccc2c3c(ncc2c1)NC(=O)C3 [Compound 275, 4-(2-cyanopropan-2-yl)-N-(4-methyl-3-(2-oxo-2,3-dihydro-1H-pyrrolo[2,3-c]isoquinolin-7-yl)phenyl)picolinamide]	20 to 100 nM
CNc1cc2ncc(-c3cc(NC(=O)c4noc5c4CCCCC5)cnc3C)cc2cn1 [Compound 245, N-(6-methyl-5-(7-(methylamino)-1,6-naphthyridin-3-yl)pyridin-3-yl)-5,6,7,8-tetrahydro-4H-cyclohepta[d]isoxazole-3-carboxamide]	20 to 100 nM
CNc1cc2ncc(-c3cc(NC(=O)c4ccnc(C5(F)CC5)c4)c(F)cc3C)cc2cn1 [Compound 221, N-(2-fluoro-4-methyl-5-(7-(methylamino)-1,6-naphthyridin-3-yl)phenyl)-2-(1-fluorocyclopropyl)isonicotinamide]	20 to 100 nM
CNc1cc2ncc(-c3cc(NC(=O)c4cc(C(F)(F)F)ccn4)c(F)cc3C)cc2cn1 [Compound 224, N-(2-fluoro-4-methyl-5-(7-(methylamino)-1,6-naphthyridin-3-yl)phenyl)-4-(trifluoromethyl)picolinamide]	100 to 500 nM
CNc1cc2ncc(-c3cc(NC(=O)c4cnc5n4CC(C(F)F)CC5)cnc3C)cc2cn1 (stereo not drawn) [Compound 251, 6-(difluoromethyl)-N-(6-methyl-5-(7-(methylamino)-1,6-naphthyridin-3-yl)pyridin-3-yl)-5,6,7,8-tetrahydroimidazo[1,2-a]pyridine-3-carboxamide]	100 to 500 nM

Second part, the molecule after the results:

GI50	Compound
≥ 500 nM	CNc1cc2ncc(-c3cc(NC(=O)c4cccc5c4CCC[C@@H]5O)cnc3C)cc2cn1 (single isomer, unassigned) [Compound 207]
20 to 100 nM	CNc1cc2ncc(-c3cc(NC(=O)c4cc(C(O)(O)C(F)(F)F)ccn4)cnc3C)cc2cn1 [Compound 206, N-(6-methyl-5-(7-(methylamino)-1,6-naphthyridin-3-yl)pyridin-3-yl)-4-(2,2,2-trifluoro-1,1-dihydroxyethyl)picolinamide]
≥ 500 nM	CNc1cc2ncc(-c3cc(NC(=O)c4cccc5c4CCC[C@H]5O)cnc3C)cc2cn1 (single isomer, unassigned) [Compound 208]
20 to 100 nM	CNc1cc2ncc(-c3cc(NC(=O)c4ccnc(C(C)(C)F)c4)c(F)cc3C)cc2cn1 [Compound 222, N-(2-fluoro-4-methyl-5-(7-(methylamino)-1,6-naphthyridin-3-yl)phenyl)-2-(2-fluoropropan-2-yl)isonicotinamide]
20 to 100 nM	CNc1cc2ncc(-c3cc(NC(=O)c4noc5c4CC(C)(C)CC5)cnc3C)cc2cn1 [Compound 257, 5,5-dimethyl-N-(6-methyl-5-(7-(methylamino)-1,6-naphthyridin-3-yl)pyridin-3-yl)-4,5,6,7-tetrahydrobenzo[d]isoxazole-3-carboxamide]
≥ 500 nM	CNCC(F)(F)c1cccc(C(=O)Nc2cnc(C)c(-c3cnc4cc(NC)ncc4c3)c2)n1 [Compound 250, 6-(1,1-difluoro-2-(methylamino)ethyl)-N-(6-methyl-5-(7-(methylamino)-1,6-naphthyridin-3-yl)pyridin-3-yl)picolinamide]
100 to 500 nM	CNc1cc2ncc(-c3cc(NC(=O)c4noc5c4CN(C(C)C)CC5)cnc3C)cc2cn1 [Compound 254, 5-isopropyl-N-(6-methyl-5-(7-(methylamino)-1,6-naphthyridin-3-yl)pyridin-3-yl)-4,5,6,7-tetrahydroisoxazolo[4,5-c]pyridine-3-carboxamide]
≥ 500 nM	CNc1cc2ncc(-c3cc(NC(=O)c4nccc5c4OCCC5O)cnc3C)cc2cn1 (stereo not drawn) [Compound 211, 4-hydroxy-N-(6-methyl-5-(7-(methylamino)-1,6-naphthyridin-3-yl)pyridin-3-yl)-3,4-dihydro-2H-pyrano[2,3-c]pyridine-8-carboxamide]
